Measurements as given in PMC4014072 (Molecular and cellular biochemistry, 2010).

Target: LdLip3::HA (LdLip3 secretory lipase) (Leishmania donovani, UniProt D7P7V3)
Assay: fluorogenic 4MU release assay, anti-HA affinity-purified enzyme
Assay type: biochemical
Settings: 150 µM substrate, McIlvaine buffer pH 6.0, 37 and 42 °C, 30 min

## CCCCCCCCCCCCCCCCCC(=O)Oc1ccc2c(C)cc(=O)oc2c1 [4MU-stearate]
  fluorogenic 4MU release assay, anti-HA affinity-purified enzyme: LdLip3∷HA chimeric protein and pKSNEO controls were subsequently analyzed for lipase activity using 4MU-stearate
